Data taken from US9018383B2, “Acylamino-substituted cyclic carboxylic acid derivatives and their use as pharmaceuticals” (Sanofi, priority 2009, dated 2015).

Test system: mesangial cells
Test: not given
Details: cited from earlier work

Row | Compound | LPA-induced proliferative response of mesangial cells
1 | dioctanoylglycerol pyrophosphate [DGPP(8:0)] | inhibited

Test system: vascular smooth muscle cells and endothelial cells
Test: not given
Details: cited from earlier work

Row | Compound | LPA-induced oxidative stress
2 | dioctanoylglycerol pyrophosphate [DGPP(8:0)] | attenuated

Target: human Edg-2 receptor (Homo sapiens, UniProt Q92633)
Sequence (Q92633 whole entry): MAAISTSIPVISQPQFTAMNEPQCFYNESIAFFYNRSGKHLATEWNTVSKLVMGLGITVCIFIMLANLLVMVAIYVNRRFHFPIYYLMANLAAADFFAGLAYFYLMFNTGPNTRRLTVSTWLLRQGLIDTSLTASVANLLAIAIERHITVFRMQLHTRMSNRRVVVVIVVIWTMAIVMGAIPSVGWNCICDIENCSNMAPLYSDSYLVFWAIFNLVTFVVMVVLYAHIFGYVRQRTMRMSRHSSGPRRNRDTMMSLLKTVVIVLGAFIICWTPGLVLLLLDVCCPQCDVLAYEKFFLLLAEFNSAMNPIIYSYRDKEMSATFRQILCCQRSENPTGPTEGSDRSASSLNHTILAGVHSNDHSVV
Test: Determination of Edg-2 receptor inhibition by FLIPR measurements (LPA-mediated calcium liberation)
Format: cell-based
Details: CHO cells overexpressing human Edg-2 receptor, LPA 100 nM, fluo-4 calcium fluorescence; read-out: Inhibitory concentrations IC50 for inhibition of the Edg-2 receptor
How it was run: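 CHO cells stably overexpressing human Edg-2, loaded with fluo-4 AM, were pre-incubated ~5 min with compound (≤0.3% DMSO), then stimulated with 100 nM LPA 18:1 in HBSS/HEPES/probenecid, pH 7.5. Peak calcium fluorescence over ~3 min, baseline-corrected, versus DMSO gave % inhibition; IC50 from triplicates.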

Row | Compound | IC50
3 | Cc1cccc(CCOc2cc(C(=O)N[C@]3(C(=O)O)CC[C@H](C(F)(F)F)CC3)ccc2C2COC2)c1 [Example 131, cis-1-[4-Oxetan-3-yl-3-(2-m-tolyl-ethoxy)-benzoylamino]-4-trifluoromethyl-cyclohexanecarboxylic acid] | < 100 nM
4 | CCc1ncc(C(=O)N[C@]2(C(=O)O)CC[C@@H](C)CC2)cc1OCCc1cccc(Cl)c1 [Example 436, trans-1-({5-[2-(3-Chloro-phenyl)-ethoxy]-6-ethyl-pyridine-3-carbonyl}-amino)-4-methyl-cyclohexanecarboxylic acid] | 100 to 1000 nM
5 | COc1ccc(C(=O)NC2(C(=O)O)CCCC(C)CC2)cc1OCCc1cccc(C)c1 (stereo not drawn) [Example 46] | < 100 nM
6 | CC[C@H]1CC[C@](NC(=O)c2cnc(OC)c(-c3cccc(Cl)c3Cl)c2)(C(=O)O)CC1 [Example 300] | < 100 nM
7 | CC[C@H]1CC[C@](NC(=O)c2cnc(OC)c(-c3ccc(F)c(F)c3)c2)(C(=O)O)CC1 [Example 359, cis-1-{[5-(3,4-Difluoro-phenyl)-6-methoxy-pyridine-3-carbonyl]-amino}-4-ethyl-cyclohexanecarboxylic acid] | < 100 nM
8 | Cc1cccc(CCOc2cc(C(=O)NC3(C(=O)O)CCCCCC3)ccc2OCCO)c1 [Example 124, 1-[4-(2-Hydroxy-ethoxy)-3-(2-m-tolyl-ethoxy)-benzoylamino]-cycloheptane-carboxylic acid] | 100 to 1000 nM
9 | CC[C@H]1CC[C@](NC(=O)c2cc(F)c(OCCO)c(-c3cc(F)cc(F)c3)c2)(C(=O)O)CC1 [Example 385] | < 100 nM
10 | CC[C@H]1CC[C@](NC(=O)c2cnc(OC)c(-c3cccc(OC(F)(F)F)c3)c2)(C(=O)O)CC1 [Example 299, cis-4-ethyl-1-{[6-methoxy-5-(3-trifluoromethoxy-phenyl)-pyridine-3-carbonyl]-amino}-cyclohexanecarboxylic acid] | < 100 nM
11 | CC[C@@H]1C[C@]1(NC(=O)c1cnc(OC)c(OCCc2cccc(Cl)c2)c1)C(=O)O [Example 361, (1R,2R)-1-({5-[2-(3-Chloro-phenyl)-ethoxy]-6-methoxy-pyridine-3-carbonyl}-amino)-2-ethyl-cyclopropanecarboxylic acid] | < 100 nM
12 | CC[C@H]1CC[C@](NC(=O)c2cnc(OC)c(-c3cccc(C(F)(F)F)c3)c2)(C(=O)O)CC1 [Example 303] | < 100 nM
13 | COc1ccc(C(=O)NC2(C(=O)O)CCCCCC2)cc1OCCc1cc(C)ccc1C [Example 18] | 100 to 1000 nM
14 | C[C@H]1CC[C@@](NC(=O)c2ccc(C(F)(F)F)c(-n3ccc4ccccc43)c2)(C(=O)O)CC1 [Example 452, 1-(3-Indol-1-yl-4-trifluoromethyl-benzoylamino)-4-methyl-cyclohexanecarboxylic acid] | 100 to 1000 nM
15 | CC[C@H]1CC[C@@](NC(=O)c2ccc(OC)c(OCCc3ccccc3)c2)(C(=O)O)CC1 [Example 205] | < 100 nM
16 | COCCOc1ccc(C(=O)N[C@]2(C(=O)O)CC[C@H](C)CC2)cc1OCCc1cccc(C)c1 [Example 118, cis-1-[4-(2-Methoxy-ethoxy)-3-(2-m-tolyl-ethoxy)-benzoylamino]-4-methyl-cyclohexane-carboxylic acid] | 1000 to 30000 nM
17 | COc1ccc(C(=O)NC2(C(=O)O)CCCCCC2)cc1OCCc1cccc(C2COC2)c1 [Example 129, 1-{4-Methoxy-3-[2-(3-oxetan-3-yl-phenyl)-ethoxy]-benzoylamino}-cycloheptanecarboxylic acid] | 100 to 1000 nM
18 | COc1ccc(C(=O)NC2(C(=O)O)CC3CCC(C3)C2)cc1OCCc1cccc(C)c1 (stereo not drawn) [Example 47] | < 100 nM
19 | CC[C@H]1CC[C@](NC(=O)c2cc(F)c(OCCO)c(-c3ccc(F)c(F)c3)c2)(C(=O)O)CC1 [Example 384] | < 100 nM
20 | COc1ncc(C(=O)NC2(C(=O)O)CCCCCC2)cc1OCCc1cccc(Cl)c1 [Example 401, 1-({5-[2-(3-Chloro-phenyl)-ethoxy]-6-methoxy-pyridine-3-carbonyl}-amino)-cycloheptanecarboxylic acid] | < 100 nM
21 | C[C@H]1CC[C@](NC(=O)c2ccc(CCCO)c(-c3cccc(C(F)(F)F)c3)c2)(C(=O)O)CC1 [Example 434, cis-1-{[6-(3-Hydroxy-propyl)-3′-trifluoromethyl-biphenyl-3-carbonyl]-amino}-4-methyl-cyclohexanecarboxylic acid] | 100 to 1000 nM

Test system: platelet activation
Test: not given
Details: cited from earlier work

Row | Compound | effects of LPA, moxLDL or lipid core extracts from human atherosclerotic plaques on platelet activation
22 | dioctanoylglycerol pyrophosphate [DGPP(8:0)] | abrogated

Test system: bone metastasis
Test: not given
Details: in vivo; cited from earlier work

Row | Compound | progression of bone metastasis
23 | Cc1noc(-c2ccc(CSCCC(=O)O)cc2)c1NC(=O)OC(C)c1ccccc1Cl (stereo not drawn) [Ki16425] | reduced

Test system: unilateral ureteral obstruction
Test: not given
Details: model of unilateral ureteral obstruction; cited from earlier work

Row | Compound | renal injury
24 | Cc1noc(-c2ccc(CSCCC(=O)O)cc2)c1NC(=O)OC(C)c1ccccc1Cl (stereo not drawn) [Ki16425] | attenuated
